EC50 data for ten compounds are collected here from BindingDB's records for doi:10.7270/Q2XS5SSN (Nmmlsc, 2010).

The target in the assay is T1, GTPase KRas [1-37] (Homo sapiens, UniProt G3V5T7).
T1 construct: 1-37
T1 sequence (G3V5T7 whole entry): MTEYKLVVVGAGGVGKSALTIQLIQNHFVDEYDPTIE
Briefly: Ras wt fluorescent GTP loading blockade – biochemical, wildtype, multiplex bead flow cytometry, dose response (AID 1335). On the technique in general: A flow cytometer gives signals particle by particle.
The term EC50 denotes the concentration at which the effect is half-maximal. Higher therefore signals a less potent agent. On to `Cc1ccc(-n2c(=O)cc(N3CCc4ccccc4C3)[nH]c2=O)cc1`, for which the EC50 stood at 43.7 µM. In other words, the double-digit micromolar range.

With `Cc1cc(C(=O)Oc2ccccc2C(=O)O)c(C)o1` [2-(2,5-dimethyl-3-furoyl)oxybenzoic acid], the midpoint of the response, the EC50, lay at 3.66 µM. Compared with the last compound, the EC50 is about 12-fold lower.

Compound `O=C(O)c1ccccc1OCc1ccccc1Br` [2-(2-bromobenzyl)oxybenzoic acid] came in with an EC50 of 0.109 µM. Next, `CC1(C)Cc2c(sc(NC(=S)NC(=O)c3ccccc3)c2C(=O)O)CO1` [2-(benzoylcarbamothioylamino)-5,5-dimethyl-4,7-dihydrothieno[2,3-c]pyran-3-carboxylic acid]: 0.0993 µM.

Consider `CCn1cc(C=C2C(=O)c3ccccc3C2=O)c2ccccc21` [2-[(1-ethyl-3-indolyl)methylidene]indene-1,3-dione], for which the response was half-maximal at 7.96 µM (EC50). In other words, the single-digit micromolar range. The figure for `Cc1cc(NC(=O)CSc2nc(O)c(C#N)c(-c3ccccc3)n2)no1` [2-[(5-cyano-4-oxidanylidene-6-phenyl-1H-pyrimidin-2-yl)sulfanyl]-N-(5-methyl-1,2-oxazol-3-yl)ethanamide] is 8.92 µM; for `Cc1cc(C(=O)O)sc1CNCc1ccccc1Cl` [5-[[(2-chlorobenzyl)amino]methyl]-4-methyl-2-thenoic acid] it is 0.0782 µM; for `CCN1C(c2ccccc2)=C(c2ccccc2)S/C1=C/C=C1\SC(=S)N(C)C1=O` [(5Z)-5-[(2E)-2-(3-ethyl-4,5-diphenyl-1,3-thiazol-2-ylidene)ethylidene]-3-methyl-2-sulfanylidene-1,3-thiazolidin-4-one] it is 33.6 µM. Next, `O=C(O)/C=C/c1cn(Cc2ccccc2)nc1-c1cccs1` [(E)-3-(1-benzyl-3-thiophen-2-ylpyrazol-4-yl)prop-2-enoic acid]: 4.03 µM. Next, `CCS(=O)(=O)N1N=C(c2cccc(NS(C)(=O)=O)c2)CC1c1ccc(C)cc1` (stereo not given) [MLS000680398]: 2.61 µM.
